# Target: T1, human TLR3 (hTLR3) (Homo sapiens, UniProt O15455)
# T1 construct: expressed in transfected cells
# T1 sequence (O15455 24-904): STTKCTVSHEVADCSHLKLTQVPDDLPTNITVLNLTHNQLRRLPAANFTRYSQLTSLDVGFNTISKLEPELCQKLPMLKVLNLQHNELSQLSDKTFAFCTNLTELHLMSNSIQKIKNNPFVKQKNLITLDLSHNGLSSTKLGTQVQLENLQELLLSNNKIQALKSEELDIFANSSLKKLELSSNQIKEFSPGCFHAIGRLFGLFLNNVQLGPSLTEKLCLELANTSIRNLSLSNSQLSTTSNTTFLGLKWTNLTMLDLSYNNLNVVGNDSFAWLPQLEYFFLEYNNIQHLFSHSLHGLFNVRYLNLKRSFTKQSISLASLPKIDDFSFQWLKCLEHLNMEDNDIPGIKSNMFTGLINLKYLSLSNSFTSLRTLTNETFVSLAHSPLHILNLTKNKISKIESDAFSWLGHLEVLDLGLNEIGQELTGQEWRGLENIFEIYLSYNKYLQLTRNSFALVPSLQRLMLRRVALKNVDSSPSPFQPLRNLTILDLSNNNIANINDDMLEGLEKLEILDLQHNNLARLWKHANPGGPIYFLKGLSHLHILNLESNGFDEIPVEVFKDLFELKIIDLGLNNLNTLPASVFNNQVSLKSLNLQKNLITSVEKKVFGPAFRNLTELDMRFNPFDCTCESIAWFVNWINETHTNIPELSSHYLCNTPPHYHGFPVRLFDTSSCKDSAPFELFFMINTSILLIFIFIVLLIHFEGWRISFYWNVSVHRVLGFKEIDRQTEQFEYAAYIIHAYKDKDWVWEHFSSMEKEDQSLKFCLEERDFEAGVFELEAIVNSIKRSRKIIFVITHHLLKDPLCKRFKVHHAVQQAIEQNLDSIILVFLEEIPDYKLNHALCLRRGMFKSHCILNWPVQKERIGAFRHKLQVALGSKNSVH
# Experiment: Antagonist screen, hTLR3-NFκB-293 cells, NF-κB-luciferase reporter, with EC50 of poly(I:C)
# Type: cell-based
# Settings: compound at 0.5, 5, 50 μg/ml; EC50 concentration of poly(I:C); 16 h; NF-κB-luciferase
# Description: The method is described in greater detail as follows. The cells for each individual cell clone (hTLR3-NFκB-293, hTLR7-NFκB-293, hTLR8-NFκB-293 and hTLR9-NFκB-293) were counted and seeded one day before the stimulation at 1.5×10^4 cells per well in 96-well cell culture plates. To become adherent the cells were incubated after seeding overnight at 37° C. in 5% CO2 humidified air.
# The screen for each compound was performed at the same time for all of the receptors TLR3, TLR7, TLR8 and TLR9. Up to fifteen test compounds, each assayed in duplicate at each of three different final concentrations (0.5 μg/ml, 5 μg/ml, and 50 μg/ml), were used for 16 h cell stimulation on a single multiwell culture plate. A 4× final concentration master plate was created to prepare the different test compounds before they were added to the cells.
# Controls were added as duplicates individually for each cell clone on the cell culture plate. Positive controls were used as follows (final concentrations): 50 μg/ml poly(I:C) for hTLR3-NFκB-293; 8 μM resiquimod (R848) for hTLR7-NFκB-293; 30 μM R848 for hTLR8-NFκB-293; and 2.5 μM CpG-ODN 2006 for hTLR9-NFκB-293. Media alone was used as negative control. After addition of controls and small molecules, the cell clones were additionally stimulated with the EC50 concentration of the appropriate receptor-specific ligand.
# The mean value of wells H2 and H5 (each with cells and EC50 concentration of the appropriate receptor-specific ligand) divided by the mean of wells H3 and H6 (each with cells alone) yielded the baseline response (i.e., fold induction of luciferase activity) to EC50 concentration of the appropriate receptor-specific ligand.
# After 16 h stimulation the supernatant was removed and the cells treated with lysis buffer and stored at −80° C. before measuring.
# For each screen result a graphical documentation was performed.
# The baseline result (measured with addition of the EC50 concentration of the receptor-specific ligand) for each cell culture plate was measured as described above. Antagonistic effects were measured by down regulation compared to the baseline. Antagonists were scored as follows: • 13: compounds for which there was clear down regulation at 0.5 μg/ml, 5 μg/ml, and 50 μg/ml; • 12: compounds for which there was clear down regulation at 5 μg/ml and 50 μg/ml; • 11: compounds for which there was clear down regulation only at 50 μg/ml; • —: compounds for which there was no clear down regulation even at 50 μg/ml. Agonists
# Results were expressed as fold induction over baseline luciferase activity measured in the absence of poly(I:C). […] Additional screening was performed in like manner using additional small molecules selected from another library or specifically prepared for this purpose. Scoring is reported as above but as applied to TLR3.
row,Structure (SMILES),"hTLR3 (inhibitory effect, antagonist score)"
1,"CC1NCCc2c1[nH]c1ccccc21.Cl (racemic) [compound 619, Eleagnine hydrochloride (R,S)]",— (compounds for which there was no clear down regulation even at 50 μg/ml)
2,"O=C1c2c(O)cccc2Cc2cccc(O)c21 [compound 43, Anthralin]",— (compounds for which there was no clear down regulation even at 50 μg/ml)
3,"CN(C)CCCN1c2ccccc2Sc2ccc(C(F)(F)F)cc21.Cl [compound 53, Triflupromazinehydrochloride]",11 (compounds for which there was clear down regulation only at 50 μg/ml)
4,"CN(C)CCCN1c2ccccc2Sc2ccc(Cl)cc21.Cl [compound 64, Chlorpromazinehydrochloride]",11 (compounds for which there was clear down regulation only at 50 μg/ml)
5,"CN(C)CCC=C1c2ccccc2CCc2ccccc21.Cl [compound 74, Amitryptilinehydrochloride]",— (compounds for which there was no clear down regulation even at 50 μg/ml)
6,"OC(c1ccccc1)(c1ccccc1)C1CCNCC1 [compound 93, Azacyclonol]",— (compounds for which there was no clear down regulation even at 50 μg/ml)
7,"CN1Cc2c(N)cccc2C(c2ccccc2)C1.O=C(O)/C=C\C(=O)O (stereo not drawn) [compound 108, Nomifensine maleate]",— (compounds for which there was no clear down regulation even at 50 μg/ml)
8,"C[C@]12N[C@H](Cc3ccccc31)c1ccccc12.O=C(O)/C=C\C(=O)O [compound 109, Dizocilpine maleate]",— (compounds for which there was no clear down regulation even at 50 μg/ml)
9,"OCCN1CCN(CCCN2c3ccccc3Sc3ccc(Cl)cc32)CC1 [compound 125, Perphenazine]",— (compounds for which there was no clear down regulation even at 50 μg/ml)
10,"CN1CCN(CCCN2c3ccccc3Sc3ccc(S(=O)(=O)N(C)C)cc32)CC1.CS(=O)(=O)O.CS(=O)(=O)O [compound 149, Thioproperasinedimesylate]",— (compounds for which there was no clear down regulation even at 50 μg/ml)
11,"Clc1ccccc1C(c1ccccc1)(c1ccccc1)n1ccnc1 [compound 267, Clotrimazole]",— (compounds for which there was no clear down regulation even at 50 μg/ml)
12,"CC(NCCC(c1ccccc1)c1ccccc1)c1ccccc1.Cl (stereo not drawn) [compound 270, Fendiline hydrochloride]",11 (compounds for which there was clear down regulation only at 50 μg/ml)
13,"CN1CCC(=C2c3ccccc3Sc3ccccc32)CC1.O=C(O)/C=C\C(=O)O [compound 294, Pimethixene maleate]",11 (compounds for which there was clear down regulation only at 50 μg/ml)
14,"O=c1[nH]c2ccccc2n1C1CCN(CCCC(c2ccc(F)cc2)c2ccc(F)cc2)CC1 [compound 308, Pimozide]",12 (compounds for which there was clear down regulation at 5 μg/ml and 50 μg/ml)
15,"Cl.Cl.OCCN1CCN(CC/C=C2/c3ccccc3Sc3ccc(C(F)(F)F)cc32)CC1 [compound 340, Flupentixoldihydrochloride cis-(Z)]",11 (compounds for which there was clear down regulation only at 50 μg/ml)
16,"CNCCCN1c2ccccc2CCc2ccccc21.Cl [compound 343, Desipraminehydrochloride]",11 (compounds for which there was clear down regulation only at 50 μg/ml)
17,"CN(C)CC/C=C1/c2ccccc2Sc2ccc(Cl)cc21.Cl [compound 348, Chlorprothixenehydrochloride]",11 (compounds for which there was clear down regulation only at 50 μg/ml)
18,"Cc1cccc(C)c1NC(=O)CN1CCN(CCCC(c2ccc(F)cc2)c2ccc(F)cc2)CC1 [compound 381, Lidoflazine]",11 (compounds for which there was clear down regulation only at 50 μg/ml)
19,"Cl.Cl.Fc1ccc(C(OCCN2CCN(CCCc3ccccc3)CC2)c2ccc(F)cc2)cc1 [compound 386, GBR 12909hydrochloride]",11 (compounds for which there was clear down regulation only at 50 μg/ml)
20,"Nc1cccc2c1C(=O)c1cccc(N)c1C2=O [compound 413, Anthraquinone,1,5-diamino]",11 (compounds for which there was clear down regulation only at 50 μg/ml)
21,"CN1CCC2C(C1)c1ccccc1N2Cc1ccccc1 (stereo not drawn) [compound 455, Mebhydroline 1,5 naphtalenedisulfonate]",— (compounds for which there was no clear down regulation even at 50 μg/ml)
22,"Cc1cccc(CN2CCN(C(c3ccccc3)c3ccc(Cl)cc3)CC2)c1.Cl.Cl (stereo not drawn) [compound 457, Meclozinedihydrochioride]",— (compounds for which there was no clear down regulation even at 50 μg/ml)
23,"c1ccc2c(c1)[nH]c1cnccc12 [compound 470, norharman]",11 (compounds for which there was clear down regulation only at 50 μg/ml)
24,"CN(C)CC/C=C1/c2ccccc2CSc2ccccc21.Cl [compound 488, Dosulepin hydrochloride]",11 (compounds for which there was clear down regulation only at 50 μg/ml)
25,"CN1CCN(C(c2ccccc2)c2ccccc2)CC1.Cl [compound 510, Cyclizine hydrochloride]",— (compounds for which there was no clear down regulation even at 50 μg/ml)
26,"CN1CCCCC1CCN1c2ccccc2Sc2ccc([S+](C)[O-])cc21.O=S(=O)(O)c1ccccc1 (stereo not drawn) [compound 529, Mesoridazine besylate]",— (compounds for which there was no clear down regulation even at 50 μg/ml)
27,"CCOC(=O)Oc1c(OC)cc(C(=O)O[C@@H]2C[C@@H]3CN4CCc5c([nH]c6cc(OC)ccc56)[C@H]4C[C@@H]3[C@H](C(=O)OC)[C@H]2OC)cc1OC [compound 564, Syrosingopine]","13 (compounds for which there was clear down regulation at 0.5 μg/ml, 5 μg/ml, and 50 μg/ml)"
28,"COC(=O)[C@H]1[C@H]2C[C@@H]3c4[nH]c5cc(OC)ccc5c4CCN3C[C@H]2C[C@@H](OC(=O)/C=C/c2cc(OC)c(OC)c(OC)c2)[C@@H]1OC [compound 568, Rescinnamin]",— (compounds for which there was no clear down regulation even at 50 μg/ml)
29,"CC(=O)c1ccc2c(c1)N(CCCN(C)C)c1ccccc1S2.O=C(O)/C=C\C(=O)O [compound 576, Acetopromazinemaleate salt]",11 (compounds for which there was clear down regulation only at 50 μg/ml)
30,"COC(=O)C1=CO[C@@H](C)[C@@H]2CN3CCc4c([nH]c5ccccc45)[C@@H]3C[C@H]12 [compound 593, Tetrahydroalstonine]",— (compounds for which there was no clear down regulation even at 50 μg/ml)

# Reference: patent US7410975B2, “Small molecule toll-like receptor (TLR) antagonists” (Coley Pharmaceutical Group, Inc., priority 2003, dated 2008)
